# Data taken from article PMC7689712, “Characterization of ancestral myosin XI from Marchantia polymorpha by heterologous expression in Arabidopsis thaliana” (The Plant Journal, 2020).
# Target: T1, Mp myosin XI-MD (Marchantia polymorpha, UniProt H3JRT9)
# T1 construct: gene MyoXI; motor domain, residues 1-738; N-terminal FLAG tag (MDYKDDDDKRSMNSRPA), C-terminal GGG-Myc-His8 tag
# T1 sequence (H3JRT9 1-738): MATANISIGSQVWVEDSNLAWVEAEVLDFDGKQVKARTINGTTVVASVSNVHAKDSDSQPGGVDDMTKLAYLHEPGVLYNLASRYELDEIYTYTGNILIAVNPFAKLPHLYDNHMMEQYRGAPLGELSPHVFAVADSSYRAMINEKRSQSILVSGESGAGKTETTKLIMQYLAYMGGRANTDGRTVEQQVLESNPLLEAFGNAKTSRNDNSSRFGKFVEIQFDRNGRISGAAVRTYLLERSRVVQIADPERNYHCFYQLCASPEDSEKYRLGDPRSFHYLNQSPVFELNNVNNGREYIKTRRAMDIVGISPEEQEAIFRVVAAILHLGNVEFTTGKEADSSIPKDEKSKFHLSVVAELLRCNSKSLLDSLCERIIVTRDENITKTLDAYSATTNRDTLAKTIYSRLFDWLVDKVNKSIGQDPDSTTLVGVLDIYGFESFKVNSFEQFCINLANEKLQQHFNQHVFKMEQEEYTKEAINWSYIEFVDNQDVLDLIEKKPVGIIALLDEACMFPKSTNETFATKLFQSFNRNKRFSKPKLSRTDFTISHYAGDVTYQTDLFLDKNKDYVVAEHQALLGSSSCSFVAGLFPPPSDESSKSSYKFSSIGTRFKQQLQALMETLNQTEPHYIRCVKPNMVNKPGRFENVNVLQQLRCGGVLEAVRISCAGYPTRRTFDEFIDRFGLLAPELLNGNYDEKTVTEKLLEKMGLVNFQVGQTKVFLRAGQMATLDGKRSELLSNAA
# Experiment: steady-state actin-activated Mg2+-ATPase assay
# Assay type: biochemical
# Conditions: F-actin varied, 25 °C
compound,measurement,value
Nc1ncnc2c1ncn2[C@@H]1O[C@H](COP(=O)(O)OP(=O)(O)OP(=O)(O)O)[C@@H](O)[C@H]1O [ATP],steady-state actin-activated Mg2+-ATPase assay,we determined the maximum rate of ATP turnover (V max) and the actin concentration
